The record followed here is ChEMBL document CHEMBL1135412, “Synthesis and in vitro evaluation of quaternary ammonium derivatives of chlorambucil and melphalan, anticancer drugs designed for the chemotherapy of chondrosarcoma” (J Med Chem, 2002).

Molecules are shown by their SMILES.

The subject of data set [1] is MCF7S. Briefly: In vitro cytotoxicity activity against MCF7, by colony forming assay. In kind it is functional, cell-based. To be noted: Homo sapiens.
Data set [2] can be described thus: Alkylating activity of compound was determined by the NBP assay at 570 nm. It is filed as functional.
In data set [3] the test system is M4Beu cell line. As to the kind of experiment: In vitro cytotoxicity activity against M4 Beu, by colony forming assay. It is filed as functional, cell-based. To be noted: Homo sapiens.
A short description of data set [4]: Glutathione-s-transferase activity of the compound, expressed as percentage of control. In kind it is functional.
Data set [5] is described as follows: In vitro cytotoxicity in chondrosarcoma cell line (H-EMC-SS) by Hoechst 33342 DNA Fluorometric assay. It is filed as functional. To be noted: Homo sapiens.
The test system of data set [6] is B16. Briefly: In vitro cytotoxicity activity against B16, by colony forming assay. It is filed as functional, cell-based. To be noted: Mus musculus.
Data set [7] can be described thus: Partition coefficient (logD) (octanol/phosphate buffer). In kind it is physicochemical.
A short description of data set [8]: In vitro cytotoxicity in chondrosarcoma cell line (H-EMC-SS) by Alamar blue assay. To be noted: Homo sapiens. It is filed as functional.
Data set [9] is described as follows: In vitro cytotoxicity activity against M4 Dau, by colony forming assay. In kind it is functional.
Data set [10] concerns M4Beu cell line. As to the kind of experiment: Comparative cellular uptake study performed on M4 Beu (melanoma cell line). In kind it is functional, Homo sapiens.
Data set [11] can be described thus: Comparative cellular uptake study performed on H-EMC-SS (chondrosarcoma cell line). In kind it is functional, Homo sapiens.
Data set [12] is described as follows: In vitro cytotoxic activity against M4 Dau, by colony forming assay. In kind it is functional.
Data set [13] has as its system B16. As to the kind of experiment: In vitro cytotoxic activity against B16, by colony forming assay. In kind it is functional, cell-based. To be noted: Mus musculus.
For data set [14], the system named is MCF7S. As to the kind of experiment: In vitro cytotoxic activity against MCF7, by colony forming assay. In kind it is functional, cell-based. To be noted: Homo sapiens.
For data set [15], the system named is M4Beu cell line. Briefly: In vitro cytotoxic activity against M4 Beu cells, by colony forming assay. To be noted: Homo sapiens. In kind it is functional, cell-based.
Data set [16] relates to B16. As to the kind of experiment: In vitro cytotoxicity activity against B16 cells, by colony forming assay. In kind it is functional, cell-based. To be noted: Mus musculus.
For data set [17], the system named is MCF7S. Briefly: In vitro cytotoxicity activity against MCF-7. It is filed as functional, cell-based. To be noted: Homo sapiens.
Data set [18] in a line: In vitro cytotoxicity activity against M4 Dau by colony forming assay. It is filed as functional.

`C[N+](C)(C)CCCNC(=O)C(N)Cc1ccc(N(CCCl)CCCl)cc1.[Cl-]` (centres undefined): the IC50 in data set [1] was found to be 0.9 µM; in [3], 14.4 µM; in data set [6], 19.5 µM; in data set [9], 3.3 µM. Besides, the Alkylating activity in data set [2] was 15.7 10e3·k. Also, the Glutathione-S-transferase activity (% of control) in [4] amounted to 79%. Further, the CC50 in data set [5] is 1.2 µM; in data set [8] it was 1.8 µM. Moreover, the logD in [7] was -1.12. Moreover, the values for the Cellular uptake in [10] and in data set [11] were 6.82 pmol/µL and 1.54 pmol/µL, respectively.
With `C[N+](C)(C)CCCNC(=O)CCCc1ccc(N(CCCl)CCCl)cc1.[I-]`, the IC50 in data set [12] was determined as 1.3 µM; in [13] it was 8.6 µM; in data set [14] it was 1.2 µM; in [15], 5.1 µM. Also, in data set [2], the Alkylating activity was 40.4 10e3·k. The Glutathione-S-transferase activity (% of control) in [4] was found to be 55.4%. Also, the results for the CC50 in [5] and in data set [8] were 0.6 µM and 0.7 µM, respectively. The logD in data set [7] is 0.32. The Cellular uptake came out at 16.7 pmol/µL in data set [10] and 2.97 pmol/µL in data set [11].
Take `O=C(O)CCCc1ccc(N(CCCl)CCCl)cc1` [CHLORAMBUCIL]: the Alkylating activity in data set [2] is 30.2 10e3·k. In addition, the Glutathione-S-transferase activity (% of control) in data set [4] worked out at 60.4%. Further, the 50% inhibitory concentration (IC50) in data set [14] was 1.7 µM; in [9], 1.5 µM; in [16], 5.1 µM; in data set [15], 5.1 µM. Further, the CC50 is 2.7 µM in data set [5] and 3.5 µM in data set [8]. The pH-dependent lipophilicity (logD) in data set [7] (octanol/water) is reported as 0.75. Also, the Cellular uptake turned out to be 18.4 pmol/µL in data set [10] and 2.73 pmol/µL in data set [11].
`N[C@@H](Cc1ccc(N(CCCl)CCCl)cc1)C(=O)O` [MELPHALAN]: the Alkylating activity in data set [2] is 10.3 10e3·k. Moreover, the IC50 in [3] stood at 1.2 µM; in data set [6], 2.2 µM; in data set [17] it was 0.3 µM; in data set [18] it was 0.5 µM. In data set [4], this molecule showed a Glutathione-S-transferase activity (% of control) of 85.3%. Further, the values for the CC50 in [5] and in [8] were 0.9 µM and 1.6 µM, respectively. In data set [7], the logD was 0.11. Further, the Cellular uptake came out at 21.9 pmol/µL in data set [10] and 2.88 pmol/µL in data set [11].
